The values that follow come from ChEMBL document CHEMBL1201862, “PubChem BioAssay data set” (2004).

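Five concentrations, 48 hours, 96-well plates. GI50 = concentration required for 50% inhibition of growth.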 Activity calls are given as the source filed them. Rule as the data show it: active = GI50 up to about 1.1 µM and inactive = higher. Where a SMILES comes first, the peptide text is derived from it. [ ]: non-standard residue; d: D form. Ac5c = NC1(C(=O)O)CCCC1 A value given as a limit tells only on which side of the number the result lay.

Among the test systems are CAKI-1; DU-145; EKVX; HCT-116; HCT-15; HOP-62; LOX IMVI; MDA-MB-435; NCI-H23; NCI/ADR-RES; OVCAR-3; OVCAR-4; OVCAR-5; RXF 393; SNB-75; SW-620; UACC-257; UO-31; HT-29; MDA-MB-231.
What all share (experiment): inhibition of tumour cell growth, NCI panel, 48 h

As for `Cc1noc(NC(=O)Nc2ccccc2F)c1C#N`, the GI50 in the assay with CAKI-1 is > 100 µM (inactive); with DU-145, 49.8 µM (inactive); in the assay with EKVX it was 11.6 µM (inactive); in the assay with HCT-116, 14.4 µM (inactive); in the assay on HCT-15 it was 55.3 µM; in the assay with HOP-62 it was 22.3 µM (inactive). The GI50 is 58.5 µM (inactive) in the assay with LOX IMVI; > 100 µM (inactive) in the assay with MDA-MB-435; > 81.3 µM (inactive) with NCI-H23; > 100 µM (inactive) in the assay with NCI/ADR-RES; 64.3 µM (inactive) with OVCAR-3; 69.8 µM (inactive) with OVCAR-4. Also, the GI50 in the assay with OVCAR-5 is > 28.4 µM (inactive); in the assay on RXF 393 it was > 66.8 µM (inactive); with SNB-75, 97.1 µM (inactive); with SW-620, > 100 µM (inactive); in the assay on UACC-257, 30.9 µM (inactive); in the assay with UO-31, 0.918 µM (active).

Regarding `CN1C(=O)c2ccccc2C(O)(c2ccccc2)C1(O)c1ccccc1` (centres undefined), the GI50 was 43.4 µM (inactive) in the assay on CAKI-1; 81.5 µM (inactive) in the assay with EKVX; 95.3 µM (inactive) in the assay with HCT-116; above 100 µM in the assay with HCT-15; > 100 µM (inactive) with HOP-62; > 100 µM (inactive) with HT-29. For the same compound, the GI50 in the assay with LOX IMVI was > 100 µM (inactive); in the assay on MDA-MB-231, > 100 µM (inactive); in the assay on MDA-MB-435, > 100 µM (inactive); in the assay on NCI-H23, 81.8 µM (inactive); in the assay on NCI/ADR-RES, > 100 µM (inactive); in the assay with OVCAR-3 it was > 100 µM (inactive). The GI50 was 72.8 µM (inactive) in the assay with OVCAR-4; > 100 µM (inactive) with OVCAR-5; 83.9 µM (inactive) in the assay on RXF 393; 91 µM (inactive) in the assay with SNB-75; > 100 µM (inactive) with SW-620; > 100 µM (inactive) in the assay with UACC-257. Moreover, the GI50 with UO-31 is 32.5 µM (inactive).

Regarding `CC(C)Oc1cccc(N2C(NCCc3c[nH]c4ccccc34)=Nc3ccncc3S2(=O)=O)c1`, the GI50 with CAKI-1 was 42.1 µM (inactive); in the assay on DU-145, 22.5 µM (inactive); with EKVX, 72.8 µM (inactive); in the assay on HCT-116 it was 6.71 µM (inactive); in the assay with HCT-15, 4.98 µM; in the assay with HOP-62 it was > 100 µM (inactive). Further, the GI50 in the assay with HT-29 is 5.01 µM (inactive); with LOX IMVI it was 52.1 µM (inactive); in the assay with MDA-MB-435 it was 25.8 µM (inactive); with NCI-H23, 33.1 µM (inactive); with NCI/ADR-RES, 29.9 µM (inactive); in the assay on OVCAR-3, 11.7 µM (inactive). The GI50 was 8 µM (inactive) with OVCAR-4; > 100 µM (inactive) in the assay on OVCAR-5; 3.46 µM (inactive) with RXF 393; 8.05 µM (inactive) in the assay with SNB-75; 8.36 µM (inactive) in the assay with SW-620; 9.53 µM (inactive) in the assay with UACC-257. Besides, the GI50 in the assay on UO-31 was 81.8 µM (inactive).

As to `COc1ccc(OC)c(NC(=O)C(=O)C(C(C)=O)c2nc3ccc(Cl)cc3nc2O)c1` (centres undefined), the GI50 in the assay on CAKI-1 was > 50 µM (inactive); in the assay with EKVX it was > 50 µM (inactive); in the assay on HCT-116 it was > 50 µM (inactive); in the assay with HCT-15 it was above 50 µM; in the assay on HOP-62 it was > 50 µM (inactive); in the assay with HT-29, > 50 µM (inactive). Also, the GI50 in the assay on LOX IMVI, with NCI-H23, with OVCAR-3, in the assay on OVCAR-4, with OVCAR-5 and in the assay with RXF 393 was > 50 µM (inactive) each time. The GI50 in the assay on SNB-75, in the assay with SW-620, in the assay with UACC-257 and in the assay with UO-31 was > 50 µM (inactive) each time.

`O=S(=O)(c1ccc(NC(=S)N/N=C/c2ccccc2O)cc1)N1CCCCC1`: the GI50 is 1.29 µM (inactive) in the assay with EKVX; below 0.01 µM in the assay on HCT-15; 0.114 µM (active) with HOP-62; 7.73 µM (inactive) in the assay on HT-29; < 0.01 µM (active) in the assay on LOX IMVI; 0.302 µM (active) in the assay with MDA-MB-435. Further, the GI50 was 0.281 µM (active) in the assay with NCI-H23; 0.0676 µM (active) in the assay on NCI/ADR-RES; < 0.0498 µM (active) in the assay with OVCAR-3; 0.269 µM (active) with OVCAR-5; 56.8 µM (inactive) in the assay with RXF 393; 1.36 µM (inactive) with SNB-75. Moreover, the GI50 in the assay on SW-620 is < 0.01 µM (active); in the assay on UACC-257, 0.735 µM (active); with UO-31, 1.29 µM (inactive).

As for `CN(CCO)CCCC1COc2ccccc2O1` (centres undefined), the GI50 in the assay with CAKI-1 was > 100 µM (inactive); in the assay with DU-145 it was > 100 µM (inactive); in the assay on EKVX it was 73.3 µM (inactive); in the assay with HCT-116 it was > 100 µM (inactive); in the assay on HCT-15, above 100 µM; in the assay with HOP-62, > 100 µM (inactive). For the same compound, the GI50 with HT-29, in the assay on NCI-H23, in the assay with NCI/ADR-RES, in the assay on OVCAR-3, with OVCAR-4 and in the assay with OVCAR-5 was > 100 µM (inactive) throughout. Further, the GI50 in the assay on RXF 393, in the assay with SNB-75, in the assay with SW-620, in the assay on UACC-257 and in the assay on UO-31 was > 100 µM (inactive) each time.

As for `COC1(CCO)CC=CCC1(CCO)OC` (centres undefined), the GI50 in the assay with CAKI-1 is > 100 µM (inactive); in the assay on DU-145 it was > 100 µM (inactive); in the assay on EKVX it was > 100 µM (inactive); with HCT-116, > 100 µM (inactive); in the assay with HCT-15, above 100 µM; with HOP-62, > 100 µM (inactive). Further, the GI50 in the assay on HT-29, in the assay on LOX IMVI, in the assay with NCI/ADR-RES, in the assay on OVCAR-3, with OVCAR-4 and in the assay with OVCAR-5 was > 100 µM (inactive) throughout. For the same compound, the GI50 in the assay on SNB-75, in the assay on SW-620, in the assay with UACC-257 and in the assay with UO-31 was > 100 µM (inactive) throughout.

For `COC(=O)C(=O)C(C(C)=O)C(=O)NCc1ccc(OC)c(OC)c1` (centres undefined), the GI50 in the assay with CAKI-1 is > 100 µM (inactive); with EKVX, > 100 µM (inactive); with HCT-116, > 100 µM (inactive); with HCT-15 it was above 100 µM; in the assay with HOP-62 it was > 100 µM (inactive); with HT-29 it was > 100 µM (inactive). Also, the GI50 with LOX IMVI is > 100 µM (inactive); in the assay with NCI-H23, > 100 µM (inactive); in the assay with OVCAR-3, > 100 µM (inactive); in the assay on OVCAR-4, > 100 µM (inactive); with OVCAR-5 it was > 100 µM (inactive); in the assay with RXF 393 it was 78.5 µM (inactive). The GI50 in the assay on SNB-75 is > 100 µM (inactive); with SW-620 it was 40.5 µM (inactive); in the assay with UACC-257, > 100 µM (inactive); in the assay on UO-31, > 100 µM (inactive).

As to `CC1(C)OC2C(=O)OC(COCc3ccccc3)C2O1` (centres undefined), the GI50 in the assay on CAKI-1 was > 100 µM (inactive); with EKVX it was > 100 µM (inactive); with HCT-116 it was > 100 µM (inactive); in the assay with HCT-15, above 100 µM; with HOP-62, > 100 µM (inactive); with HT-29 it was > 100 µM (inactive). The GI50 with LOX IMVI, with NCI-H23, in the assay on OVCAR-3, with OVCAR-4, with OVCAR-5 and with RXF 393 was > 100 µM (inactive) throughout. In addition, the GI50 in the assay with SNB-75, with SW-620, in the assay with UACC-257 and with UO-31 was > 100 µM (inactive) throughout.

Consider `COC(CCC[N+](C)(C)C)CC[N+](C)(C)C` (centres undefined), for which the GI50 in the assay on CAKI-1 is > 100 µM (inactive); in the assay with DU-145, > 100 µM (inactive); in the assay with EKVX it was > 100 µM (inactive); in the assay with HCT-116, > 100 µM (inactive); in the assay on HCT-15, above 100 µM; in the assay with HOP-62, > 100 µM (inactive). Further, the GI50 in the assay with HT-29, with NCI-H23, in the assay with NCI/ADR-RES, with OVCAR-3, with OVCAR-4 and in the assay with OVCAR-5 was > 100 µM (inactive) throughout. For the same compound, the GI50 with RXF 393, in the assay with SNB-75, in the assay on SW-620, in the assay with UACC-257 and in the assay on UO-31 was > 100 µM (inactive) each time.

With `COc1c(O)cc(C(=O)O[C@@H]2Cc3c(O)cc(O)cc3O[C@@H]2c2cc(O)c(O)c(O)c2)cc1O`, the GI50 is > 100 µM (inactive) with CAKI-1; 20.3 µM (inactive) in the assay with DU-145; 24.8 µM (inactive) with EKVX; 17.9 µM (inactive) with HCT-116; 26.5 µM in the assay on HCT-15; 30.7 µM (inactive) with HOP-62. Besides, the GI50 was 18.2 µM (inactive) in the assay on HT-29; 19.7 µM (inactive) in the assay on LOX IMVI; 17.4 µM (inactive) in the assay on MDA-MB-435; 31.5 µM (inactive) in the assay on NCI-H23; 32.9 µM (inactive) in the assay on NCI/ADR-RES; 49.4 µM (inactive) in the assay on OVCAR-3. Besides, the GI50 is 20.2 µM (inactive) in the assay on OVCAR-4; 39.4 µM (inactive) in the assay on OVCAR-5; 18.4 µM (inactive) in the assay on RXF 393; 28.2 µM (inactive) with SW-620; 53.3 µM (inactive) with UACC-257; 23 µM (inactive) in the assay on UO-31.

In the case of `COC(=O)C1(NC(=O)C(C)NC(=O)C(CCCCN)NC(=O)C(CC(C)C)NC(C)=O)CCCC1` (centres undefined) (Ac-LKA[Ac5c]-OMe; configuration not given here), the GI50 was > 100 µM (inactive) in the assay with EKVX; > 100 µM (inactive) in the assay on HCT-116; above 100 µM in the assay on HCT-15; > 100 µM (inactive) with HOP-62; > 100 µM (inactive) with HT-29; > 100 µM (inactive) in the assay on MDA-MB-231. Further, the GI50 in the assay with MDA-MB-435 was > 100 µM (inactive); in the assay on OVCAR-4 it was > 10 µM (inactive); in the assay with SNB-75, > 100 µM (inactive); with SW-620 it was > 100 µM (inactive); in the assay with UACC-257 it was > 100 µM (inactive); in the assay on UO-31 it was > 100 µM (inactive).
